Results from ChEMBL document CHEMBL1275507, “Genomic analysis reveals a point mutation in the two-component sensor gene graS that leads to intermediate vancomycin resistance in clinical Staphylococcus aureus” (2008).
≈ marks a conversion by molar mass, not a printed value.

Key:
[1] = test system: Staphylococcus aureus; test: Antimicrobial activity against 2 MCF vancomycin-intermediate Staphylococcus aureus isolate JKD6008 by Etest method
[2] = test system: Staphylococcus aureus; test: Antimicrobial activity against 2 mCF Staphylococcus aureus isolate JKD6208 harboring graS T136I mutant gene by Etest method
[3] = test system: Staphylococcus aureus; test: Antimicrobial activity against 2 MCF graRS-deficient Staphylococcus aureus isolate JKD6196 by Etest method
[4] = test system: Staphylococcus aureus; test: Antimicrobial activity against 2 MCF graRS-deficient Staphylococcus aureus isolate JKD6205 harboring pCu1 plasmid by Etest method
[5] = test system: Staphylococcus aureus; test: Antimicrobial activity against 2 MCF graRS-deficient Staphylococcus aureus isolate JKD6206 harboring plasmid JKD6151 by Etest method

Compound CN[C@H](CC(C)C)C(=O)N[C@H]1C(=O)N[C@@H](CC(N)=O)C(=O)N[C@H]2C(=O)N[C@H]3C(=O)N[C@H](C(=O)N[C@H](C(=O)O)c4cc(O)cc(O)c4-c4cc3ccc4O)[C@H](O)c3ccc(c(Cl)c3)Oc3cc2cc(c3O[C@@H]2O[C@H](CO)[C@@H](O)[C@H](O)[C@H]2O[C@H]2C[C@](C)(N)[C@H](O)[C@H](C)O2)Oc2ccc(cc2Cl)[C@H]1O [VANCOMYCIN] has an MIC [1] of 8 µg/mL (≈ 5.52 µM), an MIC [2] of 6 µg/mL (≈ 4.14 µM) and an MIC [3] of 1.5 µg/mL (≈ 1.04 µM). It also gave an MIC [4] of 1.5 µg/mL (≈ 1.04 µM) and an MIC [5] of 3 µg/mL (≈ 2.07 µM).
